These results are taken from article PMC11187542, “Identification of fragments targeting SMYD3 using highly sensitive kinetic and multiplexed biosensor-based screening” (RSC Medicinal Chemistry, 2024).

Each structure is given as a SMILES string.

For assay [1], the target named is T1, SMYD3 (Homo sapiens, UniProt Q9H7B4).
T1 construct: Full length recombinant SMYD3 was produced as previously reported; made in house; host or cells: E. coli BL21(DE3), in some cases Rosetta 2
T1 sequence (Q9H7B4 1-428): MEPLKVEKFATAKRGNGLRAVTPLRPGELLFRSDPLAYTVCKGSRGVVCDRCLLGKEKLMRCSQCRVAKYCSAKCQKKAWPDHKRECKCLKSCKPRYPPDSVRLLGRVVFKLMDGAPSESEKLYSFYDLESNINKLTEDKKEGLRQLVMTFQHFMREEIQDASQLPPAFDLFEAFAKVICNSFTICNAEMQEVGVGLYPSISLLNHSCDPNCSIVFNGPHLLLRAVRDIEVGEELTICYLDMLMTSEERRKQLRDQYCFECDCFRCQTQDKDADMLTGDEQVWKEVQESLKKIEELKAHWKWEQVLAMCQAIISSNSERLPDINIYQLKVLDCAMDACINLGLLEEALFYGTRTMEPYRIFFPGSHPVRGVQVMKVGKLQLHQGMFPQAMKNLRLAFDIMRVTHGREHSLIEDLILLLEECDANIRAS
The assay can be described thus: X-ray crystallography of SMYD3-fragment complexes (co-crystallization and soaking). The settings on record: 5 mM fragment co-crystallization or soaking. The arrangement: key to XRC: success or failure of crystallization in complex with SMYD3: The success (+) or failure (−) of crystallization in complex with SMYD3; The success (+) or failure (−) of crystallization in complex with SMYD3. From the text: To identify binding sites and binding modes, the fragment hits (Table 1) were used in both co-crystallization and soaking experiments to obtain SMYD3-fragment co-crystals for X-ray crystallographic analyses. Diffraction data of 1.6–1.9 Å maximum resolution were obtained for four fragments (Fig. 5). For data collection and refinement statistics, see ESI, ^† Table S1.
Four new sites were thus identified.
Polder (F0–Fc) maps (Fig. 5, right) were generated to establish whether the observed electron density features were more likely to represent background noise or to belong to bound fragments. These omit maps are generated upon exclusion of the ligand and surrounding solvent from the model, which aids in visualizing weak densities. […] For fragments FL01507, FL08580 and FL08619, a comparison of the maps obtained after refinement with a bound fragment with maps obtained upon their replacement with either glycerol or acetate, which were present in the crystallization or cryo-protectant solutions, respectively, was required.
8 mg mL^−1 of SMYD3 in storage buffer (TBS buffer containing 2 mM DTT) was pre-incubated for 4–8 hours with 5 mM of a respective fragment hit compound and 10% (v/v) DMSO. Subsequently, 1 μL of this solution was mixed with an equal volume of reservoir solution (100 mM Tris, 100 mM magnesium acetate, 15–17% PEG3350, pH 8.25–8.75) to create the drops for co-crystallization by hanging drop vapour diffusion performed at 20 °C. Needle-like co-crystals nucleated within 12 h of equilibration against the reservoir. In addition, crystals of SMYD3 obtained in ligand-free crystallization setups were soaked with fragment solution prior to freezing. All crystals were cryo-protected via brief immersion in reservoir solution supplemented with 10% (v/v) glycerol.
Diffraction data were collected at beamline ID23-1 of the European Synchrotron Radiation Facility (ESRF, Grenoble, France). Data were indexed, auto-processed, scaled and merged on-site using the implemented data processing routines and software. Fragment-associated electron density features were identified upon data analysis with the Pipedream system (version 1.4.0, Global Phasing Ltd, Cambridge, United Kingdom), which includes data processing with autoPROC,[14] molecular replacement with Phaser,[15] structure refinement with BUSTER version 2.10.4 (Global Phasing Ltd, Cambridge, United Kingdom), automated ligand fitting with Rhofit (Global Phasing Ltd, Cambridge, United Kingdom) and BUSTER post-refinement.[16] Refinement was done with Phenix,[17] and model building with Coot.[18] (F0–Fc) difference density maps for models, from which ligand atoms and surrounding water molecules were removed, were generated using Phenix.

The target of the next assay is T2, SMYD3 (apo, native) (Homo sapiens, UniProt Q9H7B4).
T2 construct: Full length recombinant SMYD3 was produced as previously reported; made in house; host or cells: E. coli BL21(DE3), in some cases Rosetta 2
T2 sequence (Q9H7B4 1-428): T1 sequence (Q9H7B4 1-428)
The assay can be described thus: GCI biosensor kinetic screening, apo SMYD3 surface. The format is binding. The settings on record: for LE (ligand efficiency): LE = −RT ln(KD)/n; for kon at 250 µM: read-out: ka. From the text: (§1) A multiplexed screening assay was set up with three different SMYD3 surfaces and a blank reference surface in flow channels 1–4 (FC1–FC4) (Fig. 2a), as described previously.[5] The apo SMYD3 surface detected fragments interacting anywhere on SMYD3, while a SMYD3 surface blocked by active site-specific tight-binding inhibitor EPZ031686 detected compounds binding elsewhere. The denatured surface served as a reference, detecting fragments binding to unfolded proteins, also potentially present to a significant degree in the other two surfaces.
After preparing the sensor surface and immobilising SMYD3, the functionality of the surface was assessed via analysis of interactions with the co-factor product S-adenosyl-homocysteine (SAH). It was used as a control in all experiments, confirming that sensor surfaces were intact. This was done using the novel multiple injection-based experimental design (Fig. 1) at 25 μM, i.e. in a weak binder mode (Fig. 2b).
(§2) The library was screened using the approach described in Fig. 1, i.e. injection of fragments at 250 μM for increasing durations of time in a single cycle, using a flow rate of 100 μL min^−1, data acquisition set to 40 Hz and with an association time of 5 s and dissociation of 20 s. Each fragment was addressed to all four channels and interactions with the native and blocked surfaces compared. The experimental conditions were chosen to ensure that the assay could reliably characterize the fast and transient interactions expected from typical fragments.
(§3) The kinetic screening of 1056 compounds was successfully completed in 72 hours. […] Hits were identified with full kinetic information using dissociation phases.
(§4) All interaction kinetic experiments were conducted with a GCI–flow-based biosensor (WAVEdelta, Creoptix AG/Malvern Panalytical) and PCH WAVEchip (Creoptix AG/Malvern Panalytical) sensor chips. The sensor chips were conditioned using injections of borate buffer (10 mM sodium tetraborate pH 8.5, 1 M NaCl). The running buffer composition, if not otherwise stated, was TBS buffer (50 mM Tris, 150 mM NaCl, 0.5 mM TCEP, 0.05% Tween 20, 1% DMSO, pH 8). SMYD3 was diluted to the desired concentration in 10 mM bis-Tris (pH 7.0) and amine coupled to the sensor surface of the PCH sensor chip. The sensor chip was functionalized at 25 °C by immobilising SMYD3 with EDC and NHS (Xantec) using an injection time of 420 s and a flow rate of 10 μL min^−1. The immobilisation levels ranged from 5000 pg mm^−2 to 18 500 pg mm^−2 surface mass to enable analysis of fragments spanning a broad range of affinities. After immobilization, the surface was deactivated with a running buffer containing 50 mM Tris for 420 s. The GCI data referencing and analysis were performed using WAVEcontrol V4.5 (Creoptix AG).
(§5) Kinetic measurements with controls and fragments were performed at 15 °C. Analysis of controls and follow up of hits was done using the multi cycle kinetic (MCK) injection of a concentration series for the same time, with a two-fold serial dilution starting at 250 μM for each compound. Solvent correction was performed ranging from 0.5–1.8% DMSO. Blank samples of the running buffer, 1× TBS (50 mM Tris, 150 mM NaCl, 0.5 mM TCEP, 0.05% Tween 20, 1% DMSO, pH 8), were injected during the measurements every fifth cycle. The experimental design illustrated in Fig. 1 was used for the screening against all four surfaces. The sensorgrams were adjusted to account for solvent correction and blank subtraction. Kinetic fitting was performed with the Direct Kinetics engine of WAVEcontrol software V4.5 (Creoptix AG) with a suitable fitting model.

In assay [2] the target is T1, SMYD3. The assay can be described thus: GCI biosensor multi cycle kinetic confirmation of hits. The settings on record: two-fold serial dilution starting at 250 μM, 15 °C, global fit 1:1 model. In kind it is binding. As for the experimental part:
Selected screening hits were also re-tested by conventional multi cycle kinetic analysis in order to confirm the interactions (some compounds were no longer available). Two variants of the GCI biosensor assay were set up, using different immobilisation levels, to allow the confirmation of hits over a broad range of affinities. […] The kinetics varied for the selected hits (ESI, ^† Fig. S2). All hits were not confirmed (ESI, ^† Fig. S1b).
as §4, §5
FL06268 Superstoichiometric and
Figure 1. Examples of sensorgrams from multicycle kinetic experiments with initial fragment hits and SMYD3. A)
Fragments for which crystal structures of the complex with SMYD3 were obtained. A global fit of the sensorgrams
crystal structures were not obtained. […]

Assay [3] has as its target T3, SMYD3 in complex with active site-specific tight-binding inhibitor EPZ031686 (Homo sapiens, UniProt Q9H7B4).
T3 construct: Full length recombinant SMYD3 was produced as previously reported; made in house; host or cells: E. coli BL21(DE3), in some cases Rosetta 2
T3 sequence (Q9H7B4 1-428): T1 sequence (Q9H7B4 1-428)
In words: GCI biosensor kinetic screening, active site blocked SMYD3 surface.
Excerpt: as §1, §2, §3, §4, §5

Assay [4] addresses T1, SMYD3. The arrangement: method as in PMID 31389685. The settings on record: previously obtained, SPR-based biosensor assay, cited from earlier work.
[5] abbreviates: initial kinetic screening, fragment 250 μM, 15 °C.
The mark [6] stands for this setting: initial kinetic screening, fragment 250 μM, 15 °C, 1:1 model.
Where [7] appears, read: control SAH at 25 μM, multiple injection design.

The term Kd denotes the concentration at which binding is half-saturated. `N#Cc1cccc(O)c1` [FL01507]: the “XRC: success or failure of crystallization in complex with SMYD3” value (“XRC: success or failure” below) at SMYD3 [1] is “(+)”. The “LE (ligand efficiency)” value on SMYD3 (apo, native) is listed as 0.72 (kcal^-1 mol^-1)/HA. This compound registered a Kd at SMYD3 (apo, native) (setting [5]) of 17.9 µM. For the same compound, on SMYD3 (apo, native) (setting [6]), the kd was found to be 1.3 s⁻¹ and the kon at 250 µM was 72000 M⁻¹ s⁻¹. Besides, the “Outcome of multicycle kinetic experiment (sensorgram assessment)” value (shortened to “Outcome of multicycle kinetic experiment”) at SMYD3 [2] is on record as “Complex interaction”.

Consider `O=c1cc(C(F)(F)F)c2cc(Cl)c(O)cc2o1` [FL01677], for which the “XRC: success or failure” value on SMYD3 [1] is “(−)”. At SMYD3 (apo, native), the “LE (ligand efficiency)” value was 0.35 (kcal^-1 mol^-1)/HA. Besides, binding on SMYD3 (apo, native) (setting [5]) was put at a Kd of 44.4 µM. Besides, at SMYD3 (apo, native) (setting [6]), the kd turned out to be 0.96 s⁻¹ and the kon at 250 µM is 21600 M⁻¹ s⁻¹. Further, the “Outcome of multicycle kinetic experiment” value on SMYD3 [2] was “No binding”.

With `N#Cc1cc(Br)ccc1O` [FL01750], at SMYD3 [1], the “XRC: success or failure” value is reported as “(−)”. Also, at SMYD3 (apo, native), the “LE (ligand efficiency)” value is reported as 0.61 (kcal^-1 mol^-1)/HA. Further, the Kd at SMYD3 (apo, native) (setting [5]) is 31.6 µM. At SMYD3 (apo, native) (setting [6]), the kd turned out to be 0.93 s⁻¹ and the kon at 250 µM amounted to 29500 M⁻¹ s⁻¹. The “Outcome of multicycle kinetic experiment” value at SMYD3 [2] was “No binding”.

Take `O=C(O)C(=O)c1ccccc1` [FL08619]: the “XRC: success or failure” value on SMYD3 [1] was “(+)”. Also, the “LE (ligand efficiency)” value in assay [3] (LE = −RT ln(KD)/n, blocked SMYD3 surface) is 0.55 (kcal^-1 mol^-1)/HA. Besides, in assay [3] (initial kinetic screening, fragment 250 μM, 15 °C, SMYD3 blocked by EPZ031686), the Kd was determined as 38 µM. Besides, the kd in assay [3] (initial kinetic screening, fragment 250 μM, 15 °C, SMYD3 blocked by EPZ031686, 1:1 model) came to 1.06 s⁻¹. The kon at 250 µM in assay [3] (initial kinetic screening, fragment 250 μM, 15 °C, SMYD3 blocked by EPZ031686, 1:1 model, read-out: ka) turned out to be 27300 M⁻¹ s⁻¹. The “Outcome of multicycle kinetic experiment” value on SMYD3 [2] was “Far from saturation”.

Regarding `Nc1ncnc2c1ncn2[C@@H]1O[C@H](CSCC[C@H](N)C(=O)O)[C@@H](O)[C@H]1O` [SAH, S-adenosyl-homocysteine], the ka at SMYD3 (apo, native) (setting [7]) is 304000 to 3.52e+06 M⁻¹ s⁻¹; on SMYD3 [4], “(2.7 ± 0.1) × 10^6 M^-1 s^-1”. Further, the kd on SMYD3 (apo, native) (setting [7]) is 0.748 to 4.92 s⁻¹; at SMYD3 [4], 1.6 ± 0.9 s⁻¹. On SMYD3 [4] (read-out: derived KD), the equilibrium dissociation constant (Kd) is 0.611 ± 0.002 µM.
